Results as given in PubChem BioAssay (NCI).
Where “and” joins values, the source holds several entries; their conditions need not be identical. Equal entries are not always repeated.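 Tested at 5 concentrations; 48 h exposure; 96-well plates; endpoints linearly interpolated, else capped at highest concentration. GI50: concentration for 50% inhibition of growth. TGI: concentration producing complete growth inhibition.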

Key:
Assay in all cases: inhibition of tumour cell growth, NCI panel, 48 h
CCRF-CEM leukemia = test system: CCRF-CEM leukemia
DU-145 prostate = test system: DU-145 prostate
HOP-92 NSCLC = test system: HOP-92 NSCLC
K-562 leukemia = test system: K-562 leukemia
LOX IMVI melanoma = test system: LOX IMVI melanoma
MDA-N = test system: MDA-N
OVCAR-8 ovarian = test system: OVCAR-8 ovarian
SF-539 CNS = test system: SF-539 CNS
U251 CNS = test system: U251 CNS
UO-31 renal = test system: UO-31 renal

SMILES | TGI (CCRF-CEM leukemia) | TGI (DU-145 prostate) [µM] | TGI (HOP-92 NSCLC) | TGI (K-562 leukemia) | TGI (LOX IMVI melanoma) | TGI (MDA-N) [µM] | TGI (OVCAR-8 ovarian) | TGI (SF-539 CNS) | TGI (U251 CNS) | TGI (UO-31 renal) [µM] | GI50 (CCRF-CEM leukemia) | GI50 (K-562 leukemia)
C=C1[C@@H](O)C[C@@]23CC[C@@H]4[C@@]5(C)CC[C@@H](OC(C)=O)C(C)(C)[C@@H]5C[C@@H](OC5OC(COC(C)=O)C(O)C(O)C5O)[C@@]4(C)C2=CC[C@H]3[C@H]1C (stereo partly specified) | 9.82 µM | 22.6 | 20.5 µM | 10.6 µM | 10.9 µM | 17.5 | 21.8 µM | 24.5 µM | 12.5 µM | 28 | – | –
COc1cc2c(cc1OC)C1c3ccccc3CCN1CC2 (stereo unspecified) | > 100 µM | > 100 | > 100 µM | > 100 µM | > 100 µM | > 100 | > 100 µM | 75.1 µM | > 100 µM | – | – | –
C[n+]1c(-c2ccccc2)cc2/c(=C\c3ccc([N+](=O)[O-])cc3)c3ccccc3n21 | 8.04 µM | 35.3 | > 41.6 µM | > 100 µM | 17.6 µM | 21.8 | > 26 µM | 34.7 µM | 19.8 µM | 35.5 | – | –
C=C1C(=O)OC2/C=C(\CO)C(OC(C)=O)CC(O)/C(C)=C/C(OC(=O)C(C)CC)C12 (stereo unspecified) | 22.7 µM and 69 µM | 43.8 | 35 µM and 63.2 µM | 21.4 µM and > 100 µM | 29.3 µM and 38.3 µM | 33.4 | 36.4 µM and 52.1 µM | 37.9 µM and 66 µM | > 91.6 µM and 66.3 µM | > 100 | 3.76 µM and 11.4 µM | 5.62 µM and 36.9 µM
CC1(C)O[C@@H]2COC(=O)[C@@H]2O1 | > 100 µM | > 100 | > 100 µM | > 100 µM | > 100 µM | > 100 | > 100 µM | > 100 µM | > 100 µM | > 100 | – | –
O=C1CCSSCCC(=O)NCCN1 | > 100 µM | > 100 | > 100 µM | > 100 µM | > 100 µM | > 100 | > 100 µM | > 100 µM | > 100 µM | > 100 | – | –
CC(=O)NS(=O)(=O)c1ccc(NC(=O)c2c3ccccc3nc3ccccc23)cc1 | > 100 µM | > 100 | > 100 µM | > 100 µM | > 100 µM | > 100 | > 100 µM | > 100 µM | > 100 µM | > 100 | – | –
Cc1cc(C)c2c(=O)n(CN3CC4Nc5ccccc5C4C3)sc2n1 (stereo unspecified) | > 100 µM | 40.9 | > 100 µM | 92.7 µM | 48.5 µM | 44.3 | 52 µM | 39.8 µM | > 100 µM | 32.5 | – | –
CCCCn1c2c(n(CCCC)c1=S)-c1c(n(CCCC)c(=S)n1CCCC)S[Se][Se]S2 | > 46.6 µM | > 60.4 | 9.51 µM | > 100 µM | 27.2 µM | 36.3 | 29.9 µM | 12.5 µM | 16.9 µM | 9.02 | – | –
CC(C)=C[C@@H]1C[C@H](n2cc(C)c(=O)[nH]c2=O)ON1CCO | > 100 µM | > 100 | > 100 µM | > 100 µM | > 100 µM | > 100 | > 100 µM | > 100 µM | > 100 µM | > 100 | – | –
Cc1ccc(S(=O)(=O)N2CCSCCSCCSCCSCC2)cc1 | > 100 µM | > 100 | 23.4 µM | > 100 µM | > 100 µM | > 100 | 48.4 µM | 43.7 µM | 35.3 µM | > 81.3 | – | –
O=C1NCCCc2nonc21 | > 100 µM | > 100 | > 100 µM | > 100 µM | > 100 µM | > 100 | > 100 µM | > 100 µM | > 100 µM | > 100 | – | –
O=C(NC(Cc1c[nH]c2ccccc12)C(=O)O)/C(=C/c1ccccc1O)NC(=O)c1ccccc1 (stereo unspecified) | > 100 µM | > 100 | 75.5 µM | > 100 µM | > 100 µM | > 100 | 28.9 µM | 40.6 µM | > 100 µM | 18.7 | – | –
O=[N+]([O-])C(=C(N1CCCCC1)N1CCCCC1)/C(Cl)=C(\Cl)Br | 42.4 µM | > 100 | 53.4 µM | 46.2 µM | 44.9 µM | > 100 | 35 µM | 69.2 µM | 56.3 µM | > 100 | – | –
COC(=O)c1ccccc1/C=C1/Cc2ccccc2C1=O | 98.5 µM | > 100 | > 100 µM | > 100 µM | 39.9 µM | > 100 | > 100 µM | > 100 µM | 94.9 µM | > 100 | – | –
C/C(N=Nc1nc2ccccc2s1)=C1/C=CC=CN1O | > 100 µM | > 100 | 60.9 µM | > 100 µM | > 100 µM | > 100 | > 100 µM | > 100 µM | > 100 µM | > 100 | – | –
